PMC3559838 (PLoS ONE, 2013)
Where two headings read alike, the source gives them in different places.

How the values were obtained:
[1] = Pharmacokinetics after 30 min i.v. infusion, phase I trial in hepatocellular carcinoma patients; type: in vivo, human; conditions: for Cmax / AUC(0-t) / Tmax / clearance / half-life / Vd: human, iv, plasma; for Cmax: mean ± SD; for AUC(0-t): read-out: AUC0–24 h; for clearance: read-out: CL (clearance) (converted); for half-life: read-out: T1/2 (half-life at the elimination phase) (converted); for Vd: read-out: Vz (volume of distribution)
Description: This multicentre phase I trial of belinostat was done in Hong Kong and Singapore. All patients provided written informed consent according to Good Clinical Practice guidelines, and the protocol was approved by the institutional review boards of Prince of Wales Hospital, Hong Kong and National University Hospital, Singapore.
Venous blood samples had been collected in heparinized tubes. Collected blood samples were centrifuged at 3000 g for 10–15 min and the plasma (supernatant) was separated from the cell pellet and stored in plain tubes at –80°C till analysis. […] Briefly, vorinostat-G was used as the internal standard for belinostat-G. The mass spectrometer was operated in positive ion mode with the optimal mass transitions of belinostat-G: m/z 495>93 and vorinostat-G: m/z 441>232, respectively. The analytical method was well validated with good linearity (coefficient of determination, r^2≥0.999) in the range of 1–100 µM for belinostat-G.
Pharmacokinetic parameters were estimated based on non-compartmental analysis model using WinNonlin software version 5.3 (Pharmsight, Sunnyvale, CA, USA). […] One way analysis of variance (ANOVA) was used to determine the significance among the genotypes with Tukey posthoc tests for adjustment for comparison between individual groups. A value of p<0.05 was considered to be significant.

[2] = parameters: method as in protocol pharmaceutical information; conditions: ref protocol pharmaceutical information, cited from earlier work
[3] = 600 mg/m^2, 30 min i.v. infusion
[4] = 900 mg/m^2, 30 min i.v. infusion
[5] = 1200 mg/m^2, 30 min i.v. infusion
[6] = 1400 mg/m^2, 30 min i.v. infusion

SMILES: O=C(/C=C/c1cccc(S(=O)(=O)Nc2ccccc2)c1)NO [Belinostat, N-hydroxy-3-(phenylsulphamoylphenyl) acrylamide]
- coefficient of variation of Clearance (CL) ([1]; 1200 mg/m^2): 29.0%
- coefficient of variation of Clearance (CL) ([1]; 1400 mg/m^2): 30.6%
- dose linearity of pharmacokinetics ([1]; doses ranging from 600 to 1400 mg/m^2): linear pharmacokinetics
- Cmax [1, 3]: 88.2 ± 8.5 µM
- Cmax [1, 4]: 98.5 ± 29.7 µM
- Cmax [1, 5]: 154 ± 50.4 µM
- Cmax [1, 6]: 174 ± 48.3 µM
- AUC(0-t) ([1]; 600 mg/m^2): 61.3 ± 1.2 µM·h
- AUC(0-t) ([1]; 900 mg/m^2): 70 ± 17.3 µM·h
- AUC(0-t) ([1]; 1200 mg/m^2): 113 ± 37.1 µM·h
- AUC(0-t) ([1]; 1400 mg/m^2): 149 ± 46.2 µM·h
- Tmax [1, 3]: 19.8 ± 8.4 min
- clearance [1, 3]: 877 mL/min
- half-life [1, 3]: 212 ± 20.4 min
- Vd [1, 3]: 268 ± 26.6 L
- Tmax [1, 4]: 25.2 ± 8.4 min
- clearance [1, 4]: 1180 mL/min
- half-life [1, 4]: 244 ± 23.4 min
- Vd [1, 4]: 409 ± 76.7 L
- Tmax [1, 5]: 38.4 ± 6 min
- clearance [1, 5]: 910 mL/min
- half-life [1, 5]: 248 ± 25.2 min
- Vd [1, 5]: 305 ± 186 L
- Tmax [1, 6]: 24 ± 8.4 min
- clearance [1, 6]: 883 mL/min
- half-life [1, 6]: 212 ± 30 min
- Vd [1, 6]: 279 ± 121 L
- Approximate Solubility ([2]; 1,2-propanediol): ~ 0.2 mg/mL
- Approximate Solubility ([2]; ethanol): > 200 mg/mL
- Approximate Solubility ([2]; polyethylene glycol 400): ~ 1.5 mg/mL
